# Measured values as given in US10696898B2, “Reverse photochromic compound” (FUJIFILM Wako Pure Chemical Corporation, priority 2017, dated 2020).
# Columns and labels:
# [1] = Evaluation of solubility and compatibility of compound 8 (Experiment Example 8); format: physicochemical; conditions: 20° C.
# Description: The solubility and the compatibility of the compound 8 obtained in Example 2 were evaluated in the following manner.
# In other words, 100 mg of the compound 8 was weighed in a glass container (manufactured by NICHIDEN RIKA GLASS CO., LTD.), 10 mg of various organic solvents were added thereto in a state in which the temperature thereof was maintained to 20° C., and the solution was stirred for 10 minutes. In a case where the solid content remained, the operation of adding 10 mg of the organic solvents and stirring the solution for 10 minutes was repeated, and the amount (A mg) of the organic solvents to be used at the time of complete dissolution of the compound 8 was measured. The solubility (%) was acquired based on the value of A mg using the following equation. Solubility (%)=100 mg/(100 mg+A mg)×100
# [2] = Evaluation of solvent dependence of reverse photochromic characteristics of compound 8 (Experiment Example 5); format: physicochemical
# Description: The solvent dependence of the reverse photochromic characteristics of the compound 8 was evaluated in the following manner.
# Various solutions of the compound 8 obtained in Example 2 were prepared using the following methods (1-1) to (1-7).
# (§1) First, 1.2 mg (8.7×10^−7 mol) of the compound 8 was weighed in a vial bottle (glass bottle), and 9 mL of methanol was added thereto to prepare a solution having a concentration of 1.0×10^−4 mol/L. The obtained solution was poured into another vial bottle (glass bottle) and further diluted with methanol to prepare a methanol solution containing the compound 8 with a concentration of 5.6×10^0.5 mol/L.
# as §1, with “toluene” for “methanol”, “9.3×10^−5” for “1.0×10^−4”, “1.9×10^−5” for “5.6×10^0.5”
# as §1, with “10” for “9”, “acetonitrile” for “methanol”, “8.7×10^−5” for “1.0×10^−4”, “an acetonitrile” for “a methanol”, “2.2×10^−5” for “5.6×10^0.5”
# as §1, with “1.1” for “1.2”, “(8.0×10^7′” for “(8.7×10^−7”, “10” for “9”, “chloroform” for “methanol”, “8.0×10^−5” for “1.0×10^−4”, “1.8×10^−5” for “5.6×10^0.5”
# First, 1.5 mg […] of the compound 8 was weighed in a vial bottle (glass bottle), and 10 mL of o-dichlorobenzene was added thereto to prepare a solution having a concentration of 1.1×10^−4 mol/L. The obtained solution was poured into another vial bottle (glass bottle) and further diluted with o-dichlorobenzene to prepare an o-dichlorobenzene solution containing the compound 8 with a concentration of 2.2×10^−5 mol/L.
# First, 1.3 mg (9.7×10^−7 mol) of the compound 8 was weighed in a vial bottle (glass bottle), and 10 mL of 2-propanol was added thereto to prepare a saturated solution. The supernatant of the obtained saturated solution was poured into another vial bottle (glass bottle) and further diluted with 2-propanol by three times to prepare a 2-propanol solution containing the compound 8.
# as §1, with “1.4” for “1.2”, “(1.0×10^0.6” for “(8.7×10^−7”, “10” for “9”, “chlorobenzene” for “methanol”, “2.0×10^−5” for “5.6×10^0.5”
# Various solutions containing the compound 8 obtained in the preparation (1) were put into a quartz cell having an optical path length of 1 cm together with a stirring bar, the solutions were irradiated with light while being stirred for 5 minutes under a condition of an irradiation intensity of 1 SUN (AM 1.5, 1000 W/m^2) using a solar simulator (product name: LAX-C100, manufactured by Asahi Spectra Co., Ltd.), and the absorbance of each solution at the maximum absorption wavelength was measured using a spectrophotometer (product name: V-670, manufactured by Jasco Corporation). Thereafter, the quartz cell was stored in a dark place, the absorbance at every fixed interval time was measured, and the temporal change of the absorbance of each solution at the maximum absorption wavelength was confirmed. […]
structure (smiles),measurement,setting,value
C=C(C)C(=O)OCCOC(=O)c1ccccc1-c1c2ccc(=[N+](CC)CC)cc-2oc2c1CCC/C2=C\c1ccc2c(c1)c1ccccc1n2CC [compound 8],Solubility (%),[1]; Epoxy resin (jER ®),11%
same,Solubility (%),[1]; organic solvent: 1-Methoxy-2-propanol (PGME),38%
same,Solubility (%),[1]; organic solvent: Dibutyl sebacate (DBS),20%
same,Solubility (%),[1]; organic solvent: Ethyl acetate (AcOEt),50%
same,Solubility (%),[1]; organic solvent: Methyl ethyl ketone (MEK),50%
same,Solubility (%),[1]; organic solvent: Methyl methacrylate (MMA),50%
same,Solubility (%),"[1]; organic solvent: Toluene, 100 mg/(100 mg+A mg)×100",50%
same,Solubility (%),[1]; organic solvent: Triethyl phosphate (TEP),31%
same,maximum absorption wavelength,[2]; 2-propanol solution,639 nm
same,maximum absorption wavelength,[2]; acetonitrile solution,626 nm
same,maximum absorption wavelength,[2]; chlorobenzene solution,659 nm
same,maximum absorption wavelength,[2]; chloroform solution,650 nm
same,maximum absorption wavelength,[2]; methanol solution,632 nm
same,maximum absorption wavelength,[2]; o-dichlorobenzene solution,659 nm
same,maximum absorption wavelength,[2]; toluene solution,653 nm
